Test results: patent US5776957A, “Nornicotine enantiomers for use as a treatment for dopamine related conditions and disease states” (The University of Kentucky Research Foundation, priority 1996, dated 1998)
Entries after “also recorded” stand apart in the source; their conditions may differ. Where two headings read alike, the source gives them in different places.

How the values were obtained:
[1] = tested on: mouse striatal synaptosomes; settings: Grady et al., 1992, cited from earlier work
[2] = NIC and metabolites in rat brain after s.c. injection of radiolabelled NIC; assay type: in vivo
Excerpt: NIC metabolism studies involving HPLRC analysis invariably utilize NIC with a radiolabel (i.e., [^3 H], [^14 C] or [^11 C]) incorporated in the methyl group. However N-demethylated NIC metabolites (norNIC and norCOT) cannot be detected after injection of such radionuclides, since the label is lost in the formation of these metabolites. NIC and four NIC metabolites have recently been detected in rat brain 4 hr after s.c. injection of [2'-^14 C]NIC (FIG. 3, Table I). Three of these metabolites have been identified as COT, norNIC and norCOT. A fourth minor metabolite (Peak B) has not been completely identified but appears to be an N-demethylated metabolite, since it is not detected in the [^3 H-N-methyl]NIC studies.
COT, and therefore, is unlikely to originate from COT N-demethylation. 3-HydroxyCOT and its glucuronide conjugate were not detected as metabolites of either NIC or COT in brain, even though these are major biotransformation products in the periphery (Crooks, 1993).
It appears that NIC metabolites which accumulate with a time course that correlates with the development of behavioral sensitization to NIC have a role in eliciting sensitization to NIC. The inventors have detected NIC, COT, norNIC and norCOT in brain 4 hr following acute s.c. injection of (±)[2'-^14 C]NIC. S(-) [^3 H] -N-methyl]NIC is unsuitable for studying brain metabolism of NIC, since nor-metabolites (i.e., demethylated metabolites) cannot be detected due to [^3 H]-loss during metabolism (Crooks et al., 1995b, AP 7). Thus, commercially available (±)[2'-^14 C]NIC was used to determine NIC metabolites present in brain. This form of radiolabelled NIC provides a metabolically stable [^14 C]-label which allows measurement of all potential NIC metabolites.
A second "metabolite" (Peak A, FIG. 2) was also detected at each time point and most likely results from a combination of metabolic cleavage of the N-methyl group and dissociated-[^3 H], i e, Peak A represents an oxidized 1-carbon unit and indicates the extent of NIC N-demethylation. Note, in our subsequent studies with [2'-^14 C]NIC, Peak A was not observed, which is consistent with our interpretation of the results (Table 1).

[3] = tested on: [3H]DA-preloaded rat striatal slices (nicotinic receptors); assay: [3H]overflow (DA release) from [3H]DA-preloaded rat striatal slices; assay type: cell-based
Description: In vitro pharmacological effects of NIC are generally investigated using either striatal slices or synaptosome preparations preloaded with [^3 H] DA. NIC-evoked [^3 H]overflow is obtained routinely in the presence of nomifensine (10 μM; a DA uptake inhibitor) and for pargyline (10 μM, a monoamine oxidase inhibitor) in the superfusion buffer, such that [^3 H]overflow represents primarily [^3 H]DA rather than [H]DA-metabolites (Zumstein et al., 1981, Hoffmann and Cubeddu, 1982, Dwoskin and Zahniser, 1986, Rapier et al., 1988), and for this reason, [^3 H]overflow also will be referred to as [^3 H] DA release in the proposal.
The present studies use striatal slices superfused with various concentrations of NIC or norNIC for prolonged periods.
FIG. 4. […] Insets illustrate the response to the low concentration range. […] NIC exposure indicated by the bar under time course. Note: 1-min sample collection period. […] N=4 rats.
Rat striatal slices were depolarized with 10 μM NIC, 20 mM K+or 1 Hz, 60 pulses or 3 Hz, 180 pulses electrical field stimulation. […] N=4.
MEC or DHβE was included in the superfusion buffer for 60 min prior to the addition of NIC, and superfusion continued for 60 min in the presence of NIC+antagonist.

[4] = Amphetamine drug discrimination (substitution tests); assay type: in vivo, rat
Description: Rats were trained in on two-lever food-reinforced operant tasks to discriminate amphetamine (1 mg/kg) from saline. After discrimination training stabilized, test doses of amphetamine (0.0625-2.0 mg/kg), nicotine (0.1-1.0 mg/kg) or nornicotine (1-10 mg/kg) were assessed for their ability to substitute for the amphetamine training dose during brief test sessions in which food reinforcement was withheld.
Nine male Sprague-Hawley rats were obtained from Harlan Industries (Indianapolis, Ind.) and were caged individually with water continuously available. Food access was restricted in order to maintain body weights at approximately 80% of free-feeding weight. Prior to the start of the experiment, all rats received a single injection of amphetamine (1 mg.kg, IP) as part of an unrelated experiment. Apparatus Six operant chambers (ENV-001, Med Associates, St. Albans, Vt.) enclosed in a sound attenuating environment were used. Located in the bottom center of the front panel in each chamber was a 5×4.-cm opening to a recessed food tray. Two metal response levers were located on the front panel, one on each side of the food tray. The center of each lever was mounted 7.3 cm from the grid floor. A 28-Vcue light, 3 cm in diameter, was centered 6 cm above each lever. A personal computer, interfaced to the chamber with Med Associates equipment, controlled the experimental sessions and collected data.
The general procedures utilized to establish amphetamine discrimination were similar to those outlined previously (13). Briefly, rats were first given access to food pellets (45 mg sucrose pellet, Noyes Co., Lancaster, N.H.) dispensed noncontingently into the food tray with both levers present. One lever was then removed and the rat was shaped to depress the other lever for food reinforcement. Following this, rats received 15-min daily sessions in which the lever (left or right) available for food reinforcement was alternated daily. […] The start of each session was signaled by the onset of both cue lights mounted above the levers, and the termination of each session was signaled by the offset of these lights. This training phase was continued until the rat earned 20 reinforces on an FR25 schedule for two days.
Amphetamine discrimination training was conducted Monday through Friday. For this training, both levers were mounted in the chamber. Amphetamine (A; 1 mg/kg) or saline (S), was injected IP 15 min prior to the start of the session, with the order of injections being either AASS or SSAA. The left lever was designated as the amphetamine-correct lever for 4 rats, while the right lever was amphetamine -correct for 5 rats. On Monday, Wednesday and Friday, injection-appropriate responding was food-reinforcedon an FR25 schedule for the entire 15-min session. However, 2-min extinction periods were instituted at the beginning of sessions on Tuesday and Thursday (one amphetamine and one saline test per week) to assess the control of amphetamine (or saline) over responding. […] During the remaining 13 min of these sessions, contingent reinforcement for injection-appropriate responding was reinstated. This phase of training was continued until the rat completed the first FR25 on the correct lever for 10 consecutive sessions and also completed 80% or more responses on the injection-appropriate lever during 4 consecutive extinction periods.
The substitution phase was identical to the previously described amphetamine discrimination phase, except for the Friday session, which was decreased to a 4-min extinction session with no food available.

[5] = cited from earlier work
[6] = rat brain, 4 hrs after s.c. injection, Table 1, footnote e
[7] = rat brain, 4 hrs after s.c. injection, Table 1, footnote f

## c1cncc(C2CCCN2)c1 (racemic) [(±) norNIC]
[1]
  evoked [3H]overflow / [3H]DA release: concentration dependent increase
[1]; listed as (+) nornicotine
  evoked [3H]overflow / [3H]DA release: concentration-dependent increase

## CN1CCC[14CH]1c1cccnc1 (racemic) [[^14 C-2']-NIC]
[2]; [6]
  Percent of Total Radiolabel: COT: 60.8 ± 0.63%
  Percent of Total Radiolabel: NIC: 24.2 ± 2.94%
  Percent of Total Radiolabel: Peak A: 0.0 ± 0.0%
  Percent of Total Radiolabel: Peak B: 0.0 ± 0.0%
  Percent of Total Radiolabel: norNIC: 15.1 ± 2.54%
[2]; [7]
  Percent of Total Radiolabel: COT: 62.9 ± 5.27%
  Percent of Total Radiolabel: NIC: 14.2 ± 3.30%
  Percent of Total Radiolabel: Peak A: 0.0 ± 0.0%
  Percent of Total Radiolabel: Peak B: 2.33 ± 0.12%
  Percent of Total Radiolabel: norCOT: 4.15 ± 0.48%
  Percent of Total Radiolabel: norNIC: 16.5 ± 2.04%

## CN1C(=O)C(O)CC1c1cccnc1 (stereo not shown) [3-HydroxyCOT]
[2]; rat, in vivo, sc
  presence as metabolite in brain: not detected

## CO[C@H]1CC=C2CCN3CCC4=C(CC(=O)OC4)[C@]23C1 [DHβE, dihydro-β-erythroidine]
[3]; 10 μM NIC, concentration-dependent
  inhibition of NIC-evoked [3H]overflow: robustly inhibited
[3]; 100 μM
  effect on [3H]DA release itself: evoked the release of [^3 H]DA itself
[3]; high concentrations (100 μM-3 mM) of norNIC
  inhibition of norNIC-evoked [3H]overflow: ineffective in inhibiting
[3]; low concentrations (<100 μM) of norNIC
  inhibition of norNIC-evoked [3H]overflow: effectively inhibited
[3]; norNIC concentration-response curve
  mode of antagonism of norNIC response: competitive

## O=C1CCC(c2cccnc2)N1 (stereo not shown) [NorCOT, norcotinine]
[2]; rat brain, after s.c. radiolabelled NIC
  presence as metabolite in brain: minor CNS metabolite of NIC

## CC(N)Cc1ccccc1 (stereo not drawn) [amphetamine, d-Amphetamine]
[4]; 1 and 2 mg/kg
  substitution for amphetamine training dose: substituting fully; also recorded: substituted fully
[4]; 1 and 2 mg/kg IP, 15 min
  amphetamine-appropriate responding: greater than 80%
[4]; 15 min
  total number of lever presses: dose-related decrease in total number of lever presses
[5]
  cross-sensitization between nicotine and amphetamine: has not been observed

## CCN1CCC[C@H]1CNC(=O)c1c(O)c(Cl)cc(Cl)c1OC [raclopride]
[3]; 1 μM, electrical field stimulation
  effect on overflow evoked by 1 or 3 Hz stimulation: increases overflow
